Measured values published in patent US8431602B2, “Beta-amino acid derivatives for treatment of diabetes” (Merck Patent Gesellschaft mit beschrankter Haftung, priority 2008, dated 2013).

target: T1, glucokinase (GK), human enzyme (Homo sapiens, UniProt P35557); experiment: Glucokinase Activation Assay (coupled enzyme assay with PK/LDH, NADH decline at 340 nm); type: biochemical; conditions: 2 mM glucose, half maximal effective concentration of activation
T1 sequence (P35557 1-465): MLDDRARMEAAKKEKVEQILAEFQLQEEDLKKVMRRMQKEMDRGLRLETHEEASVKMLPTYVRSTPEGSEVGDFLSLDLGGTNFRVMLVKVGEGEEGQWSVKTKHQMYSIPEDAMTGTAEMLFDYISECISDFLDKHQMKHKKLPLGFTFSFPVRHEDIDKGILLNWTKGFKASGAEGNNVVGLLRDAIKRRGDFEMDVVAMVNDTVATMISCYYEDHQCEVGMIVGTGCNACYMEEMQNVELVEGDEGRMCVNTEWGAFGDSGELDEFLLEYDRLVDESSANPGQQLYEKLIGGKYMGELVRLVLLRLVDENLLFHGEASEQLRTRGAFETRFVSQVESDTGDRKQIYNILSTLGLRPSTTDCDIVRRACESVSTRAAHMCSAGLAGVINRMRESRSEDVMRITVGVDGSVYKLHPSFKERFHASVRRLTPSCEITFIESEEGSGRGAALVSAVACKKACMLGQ
Experimental: Glucokinase Activation Screening Assay
GK activity (human or rat enzyme) is measured by a coupled enzyme assay using pyruvate kinase (PK) and lactate dehydrogenase (LDH) as coupling enzymes. GK activity is calculated from the decline in NADH monitored photometrically with a microtiter plate (MTP) reader at 340 nm.
For screening purposes, the GK assay is routinely run in a 384-MTP format, in a total volume of 33 μl/well. 10 μl of the ATP-regeneration solution (in HEPES-buffer*, pH 7.0, 6.73 U/ml pyruvate kinase, 6.8 U/ml lactate dehydrogenase) and 10 μl of the glucokinase-/glucose solution (15 μg/ml, 6.6 mM glucose in HEPES-buffer*, pH 7.0; the concentration of the glucose stock-solution was 660 mM in Millipore H2O) were mixed together with 3 μl of a 10% DMSO solution (in HEPES-buffer*, pH 7.0) containing […] the amounts of the compounds to achieve final compound concentrations in the range between 1 nM to 30 μM (sometimes 300 μM) in the assay solution (s. below). The solutions were mixed for 5 sec, and after a centrifugation at 243×g for 5 min, the solutions were preincubated for 25 min at room temperature. The reaction was started by the addition of 10 μl of the NADH-/ATP-solution (4.29 mM NADH, 4.95 mM ATP, in HEPES-buffer*). The MTP was shaken for 5 sec., and then, the absorbance at 340 nm was monitored continuously in a MTP-reader (TECAN Spectro fluor plus) for the next 27 min (with a MTP-cycling time of 199 sec.). The final concentrations of the various components were as follows: 49.5 mM Hepes, pH 7.0, 1.49 mM PEP, 1.3 mM NADH, 49.5 mM KCl, 4.96 mM MgCl2, 1.5 mM Mg-ATP, 1.98 mM DTT, 2.04 U/ml pyruvate kinase, 2.06 U/ml lactate-dehydrogenase, 0.91% DMSO, 0.15 μg/well glucokinase, and test compounds in the range between 1 nM and 300 μM, The change in the optical density (ΔOD340 nm) in the presence of the compound was expressed relative to the ΔOD340 nm, ctrl of the control incubation (in the presence of 2 mM glucose and 0.91% DMSO), taking into account the optical density of the blank sample (incubation in the absence of 2 mM glucose). For the determination of the half maximal effective concentration (EC50), the %-Ctrl-values were plotted in a semi-logarithmic graph against the cone. of the compound of interest. The data points were fitted to a sigmoid curve function (f(x)=((%-Ctrlmax−%-Ctrlmin)/(1−(EC50/x**^n(Hill)))+%-Ctrlmin)) by a non-linear regression analysis. • Hepes-buffer (50 mM Hepes, pH 7.0, 5 mM MgCl2, 50 mM KCl, 1.5 mM PEP, 0.1% BSA). DTT was added to the Hepes-buffer from a 200× stock solution (in Millipore H2O) freshly each day. The final concentration of DTT in the Hepes-buffer is 2 mM. Culture of Pancreatic INS-1 Cells

`COc1cc(C(CC(=O)Nc2ccc(Cl)cn2)N2Cc3ccccc3C2=O)cc(OC)c1OC` (single isomer, unassigned; (+)) [C1, (+)-N-(5-Chloro-pyridine-2-yl)-3-(1-oxo-1,3-dihydro-isoindole-2-yl)-3-(3,4,5-trimethoxy-phenyl)-propionamide] and `COc1cc(C(CC(=O)Nc2ccc(C)cn2)N2Cc3ccccc3C2=O)cc(OC)c1OC` (stereo not drawn) [B7, N-(5-Methyl-pyridine-2-yl)-3-(1-oxo-1,3-dihydro-isoindole-2-yl)-3-(3,4,5-trimethoxy-phenyl)-propionamide] fall in the same range of EC50: 1 to 10 µM for the first, 1 to 10 µM for the second.

`CCOc1ccc(C(CC(=O)Nc2ccc(Cl)cn2)N2Cc3ccccc3C2=O)cc1OC` (single isomer, unassigned; (+)) [C4, (+)-N-(5-Chloro-pyridine-2-yl)-3-(4-ethoxy-3-methoxy-phenyl)-3-(1-oxo-1,3-dihydro-isoindole-2-yl)-propionamide] and `COc1ccc(C(CC(=O)Nc2ccc(Cl)cn2)N2Cc3ccccc3C2=O)cc1OC` (stereo not drawn) [B6, N-(5-Chloro-pyridine-2-yl)-3-(3,4-dimethoxy-phenyl)-3-(1-oxo-1,3-dihydro-isoindole-2-yl)-propionamide] cannot be ordered by EC50: greater than 10 µM for the first, greater than 10 µM for the second.

`CCOc1ccc(C(CC(=O)Nc2ccc(Cl)cn2)N2Cc3ccccc3C2=O)cc1OC` (single isomer, unassigned; (-)) [C5, (−)-N-(5-Chloro-pyridine-2-yl)-3-(4-ethoxy-3-methoxy-phenyl)-3-(1-oxo-1,3-dihydro-isoindole-2-yl)-propionamide] and `COc1ccc(C(CC(=O)Nc2ccc(Br)cn2)N2Cc3ccccc3C2=O)cc1OC` (stereo not drawn) [B5, N-(5-Bromo-pyridine-2-yl)-3-(3,4-dimethoxy-phenyl)-3-(1-oxo-1,3-dihydro-isoindole-2-yl)-propionamide] cannot be ordered by EC50: greater than 10 µM for the first, greater than 10 µM for the second.

First: COc1cc(C(CC(=O)Nc2ccc(Cl)cn2)N2Cc3ccccc3C2=O)cc(OC)c1OC (stereo not drawn) [B2, N-(5-Chloro-pyridine-2-yl)-3-(1-oxo-1,3-dihydro-isoindole-2-yl)-3-(3,4,5-trimethoxy-phenyl)-propionamide]
Second: COc1cccc(C(CC(=O)Nc2ccc(Cl)cn2)N2Cc3ccccc3C2=O)c1OC (stereo not drawn) [C3, N-(5-Chloro-pyridine-5-yl)-3-(2,3-dimethoxy-phenyl)-3-(1-oxo-1,3-dihydro-isoindole-2-yl)-propionamide]
The EC50 of the first is lower: 1 to 10 µM for the first, greater than 10 µM for the second.

`CCOc1ccc(C(CC(=O)Nc2ccc(Cl)cn2)N2Cc3ccccc3C2=O)cc1OC` (stereo not drawn) [C23, N-(5-Chloro-pyridine-2-yl)-3-(4-ethoxy-3-methoxy-phenyl)-3-(1-oxo-1,3-dihydro-isoindole-2-yl)-propionamide] was tested, and the EC50 was greater than 10 µM.
